# Results taken from patent US4774381A, “Herbicide resistant tobacco” (E. I. Du Pont de Nemours and Company, priority 1985, dated 1988).
# What was measured:
# H1 (parent) callus = assay: Callus growth test with chlorsulfuron and structural analogues; type: cell-based, Nicotiana tabacum; details: 10 ppb compound, 2 weeks in the dark
# Protocol: (§1) In these growth tests, petri dishes containing C1 agar medium and 10 ppb of the sulfonamide herbicide chlorsulfuron and Compounds A through E were prepared. A sterile filter paper disc was placed in the center of each plate, and inoculated with 250 mg of callus tissue homozygous for the S4 mutation, or callus tissue derived from the haploid parent H1. The resulting cultures were incubated at 25° in the dark for 2 weeks. At the conclusion of the incubation period, filter discs containing callus cells were removed from culture dishes, placed on a Buchner funnel, and gentle suction applied to remove excess water. The resulting callus mass was then carefully scraped from the filter disc and weighed. Four replicates were included in each experiment.
# S4/S4 callus = assay: as above; type: cell-based, Nicotiana tabacum; details: 10 ppb compound, 2 weeks in the dark
# Protocol: as §1
# [1] = test system: "resistant" regenerated plants; details: paraquat 10^-5 M; cited from earlier work
# control plants = details: paraquat 10^-5 M; cited from earlier work
# [2] = test system: picloram-tolerant tobacco mutants; details: cited from earlier work
SMILES,Mean Fresh Weight (H1 (parent) callus) [g],Mean Fresh Weight (S4/S4 callus) [g],other results
Cc1cc(C)nc(NC(=O)NS(=O)(=O)c2ccccc2Cl)n1 [A],0,5.16,
COc1cc(C)nc(NC(=O)NS(=O)(=O)c2ccccc2Cl)n1 [B],0,5.60,
COc1cc(OC)nc(NC(=O)NS(=O)(=O)c2ccccc2Cl)n1 [C],0,5.08,
Cc1nc(C)nc(NC(=O)NS(=O)(=O)c2ccccc2Cl)n1 [D],0,4.53,
COc1nc(NC(=O)NS(=O)(=O)c2ccccc2Cl)nc(OC)n1 [E],0,4.97,
C[n+]1ccc(-c2cc[n+](C)cc2)cc1 [paraquat],,,time for leaves to bleach to white [1]: 4 to 7 days; time for leaves to bleach to white (average) (control plants): 3.5 days
"Nc1c(Cl)c(Cl)nc(C(=O)O)c1Cl [picloram, 4-amino-3,5,6-trichloropicolinic acid]",,,"seed germination ([2]; 100 μM picloram, seeds of tolerant mutants): germinated; plantlet development ([2]; one month's exposure to 50 μM picloram, plantlets homozygous for tolerance mutations): developed stem callus tissue and degenerated"
